In ChEMBL document CHEMBL3507680, “University of Dundee, Gates Library screen for HepG2 cell viability”:

Assay: Human HepG2 cell viability assay in 384 well format
Format: toxicity, cell-based
Parameters: dose 125 nL, time 70.5 hour; cytotoxicity at 70.5 h: concentration not given beside the values
Settings: HepG2 cells, read-out: Inhibition

Row | SMILES | cytotoxicity at 70.5 h
1 | Cc1nnc([C@H]2CC[C@@H]3[C@@H](CCN3CC3CCOCC3)O2)o1 | -2.48%
2 | O=C(c1ccsc1)N1C[C@H](N2CCOCC2)[C@@H]2OCCC[C@@H]21 | -1.61%
3 | Cc1nnc([C@@H]2CC[C@@H]3[C@@H](CCN3C3CCOCC3)O2)o1 | -3.43%
4 | O=C(C1CCOCC1)N1CC[C@@H]2[C@H]1CCC(=O)N2c1ccccc1 | 13.7%
5 | CC(=O)N1CCO[C@@H]2CN(C(=O)c3ccccc3)CC[C@@H]2C1 | 13.4%
6 | O=c1cc(Cn2cncn2)nc2n1CCCN(CC1CCOCC1)C2 | -3.57%
7 | CN(C)S(=O)(=O)N1CCC2(CC1)CC(OCC1CC1)CO2 (configuration not stated) | -4.38%
8 | CN(C)Cc1cc(=O)n2c(n1)CN(CC1CCOCC1)CCC2 | -10.5%
9 | Fc1cccc(N2CCCC3(C2)CN(c2cnccn2)CCO3)c1 (configuration not stated) | -5.22%
10 | Cc1ccc(CC(=O)N2CCCn3nnc(Cn4cccn4)c3C2)cc1 | -9.04%
11 | O=S(=O)(C1CC1)N1CCOC2(COCCN(c3ncccn3)C2)C1 (configuration not stated) | -9.98%
12 | O=C(c1ccncc1)N1CCCn2nnc(Cn3cccn3)c2C1 | -8.56%
13 | CCOCC1CN(Cc2ccoc2)Cc2cn(CC3CC3)nc21 (configuration not stated) | -19.8%
14 | O=c1cc(Cn2ccnc2)nc2n1CCCN(CC1CCOCC1)C2 | -19.5%
15 | O=c1cc(CN2CCCC2)nc2n1CCCN(CC1CCOCC1)C2 | -13.6%
16 | O=C(CO)N1CCCn2nnc(Cn3cccn3)c2C1 | 11.5%
17 | CN(C)CCN1C[C@@H]2OCCN(Cc3cnn(C)c3)[C@@H]2C1 | -8.58%
18 | COCCN1Cc2ccnn2CC(COCc2cccnc2)C1 (configuration not stated) | -5.12%
19 | CNC(=O)c1cc2c(nc1NCC(C)C)CCN(S(C)(=O)=O)CC2 | -5.11%
20 | Cc1ccc(CN2Cc3ccnn3CC(COCc3cccnc3)C2)o1 (configuration not stated) | -5.79%
21 | CCS(=O)(=O)N1CCc2cc(C(=O)NC)c(NCC(C)C)nc2CC1 | -4.65%
22 | CNC(=O)c1cc2c(nc1NCC(C)C)CCN(S(=O)(=O)N(C)C)CC2 | -5.52%
23 | O=C(c1n[nH]c2c1CCN(Cc1nccs1)C2)N1CCOCC1 | 4.7%
24 | Cc1cnc(N2Cc3nccn3CC(Cn3nc(C)nc3C)C2)nc1 (configuration not stated) | 0.499%
25 | Cn1cc(CN2CCO[C@H]3CN(Cc4ccsc4)C[C@H]32)cn1 | -14%
26 | Cn1cc(CN2C[C@@H]3OCCN(CC4CCCC4)[C@@H]3C2)cn1 | -7.97%

Row | SMILES | cytotoxicity at 70.5 h
27 | CS(=O)(=O)N1CCCC12CCCN(C(=O)c1ccno1)C2 (configuration not stated) | -9.08%
28 | O=C(CC1CC1)N1CCC2(CC(=O)N(c3cccc(F)c3)C2)C1 (configuration not stated) | -6.99%
29 | O=C(Cn1nc(Br)nc1Br)N1CCCC1 | -0.289%
30 | Cn1c(N)c2c(=O)n(C)c(-c3ccccc3)cc2c(C#N)c1=O | -10.5%
31 | Cn1c(N)c2c(=O)n(C)c(-c3ccc(Cl)cc3)cc2c(C#N)c1=O | -8.81%
32 | COc1cc2nc(C)n(CC(=O)O)c(=O)c2cc1OC | -8.36%
33 | O=C(Cn1ccc2ccc(Br)cc21)NC[C@@H]1CCCN2CCCC[C@H]12 | 41.4%
34 | COc1cccc2c1ccn2CCC(=O)NCCCC(=O)O | -3.23%
35 | COC(=O)c1ccc(C2CC(=O)Oc3cc(C)[nH]c(=O)c32)cc1 (configuration not stated) | 4.58%
36 | O=C(NCCCN1CCOCC1)c1cc(-c2ccc3c(c2)CCO3)n[nH]1 | -0.337%
37 | CC(C)S(=O)(=O)c1nnc(CCNC(=O)OC(C)(C)C)o1 | 29.5%
38 | CCC(C)[C@H](NC(=O)c1cc(Br)ccc1-n1cnnn1)C(=O)OC (some centres not stated) | 42%
39 | O=C(NCC1CC1)c1nc(COc2ccc3c(c2)OCO3)no1 | 0.603%
40 | O=C(NCCc1c[nH]cn1)c1ccc2c(c1)C(=O)N(C1CC1)C2=O | 3.29%
41 | O=C1N(c2ccc(F)cc2)Cc2nc(=O)n(Cc3cccc(Cl)c3)n21 | -0.858%
42 | O=C(COc1coc(CN2CCCCC2)cc1=O)Nc1ccccc1Cl | -9.78%
43 | CC1=Nc2c(c(=O)[nH]n2C(C)C)C(c2ccccc2)S1 (configuration not stated) | -3.86%
44 | CC1=Nc2c(c(=O)[nH]n2C(C)C)C(c2cccs2)S1 (configuration not stated) | -8.68%
45 | COc1ccc2nnc(CCCC(=O)NCCC3=CCCCC3)n2n1 | -4.24%
46 | O=c1cc2c(nn1CN1CCN(c3cccc(Cl)c3)CC1)CCC2 | -6.87%
47 | CC1=Nc2c(c(=O)[nH]n2C2CCOCC2)C(c2cccc(Br)c2)S1 (configuration not stated) | 4.78%
48 | COc1ccc2nnc(CCCC(=O)NCc3cccn3C)n2n1 | 6.5%
49 | O=C1CSC(c2ccsc2)c2c(n(C3CCOCC3)[nH]c2=O)N1 (configuration not stated) | 27.6%
50 | CNC(=O)c1cccnc1Oc1ccccc1 | -5.8%
51 | CCOC(=O)CN1CCC2(CC1)CC(=O)c1ccc(OC)cc1O2 | 2.89%
52 | CCc1ccc(NC(=O)C2OC(c3cccs3)=NN2C(C)=O)cc1 (configuration not stated) | 40.2%

Row | SMILES | cytotoxicity at 70.5 h
53 | O=C(Cc1c(F)cccc1F)N1CCN(CC(=O)N2CCCC2)CC1 | -5.05%
54 | Cc1n[nH]c2c1C(c1ccsc1)SCC(=O)N2 (configuration not stated) | 8.67%
55 | COc1ccc(C(=O)N2CCCC2c2ccco2)cc1OC (configuration not stated) | -12.1%
56 | CCOc1nc2cccnc2n(CC(=O)NCCOC)c1=O | -14.5%
57 | CCc1ccc(NC(=O)c2cnc(N3CCN(C)CC3)nc2C)cc1 | 36.8%
58 | COc1ccc(OC)c(NC(=O)c2nc3ccccc3n(C)c2=O)c1 | -7.65%
59 | COc1cccc(CN2CCCCCC2c2cccc(C)c2)c1O (configuration not stated) | 6.46%
60 | O=C(NCc1cccs1)[C@]12COC[C@H]1CN(c1ncccn1)C2 | -3.55%
61 | CN(C)C[C@H]1OC[C@@H]2CCN(C(=O)Cc3cccs3)C[C@@H]21 | -9.21%
62 | CN(C)S(=O)(=O)N1C[C@H]2CCC[C@@]2(COc2cccnc2)C1 | -5.8%
63 | Cc1nc(C)n(CC2CN(Cc3cccs3)Cc3nccn3C2)n1 (configuration not stated) | -0.931%
64 | CN(C)C(=O)c1n[nH]c2c1CN(Cc1nccs1)CC2 | -1.73%
65 | CNC(=O)c1cc2c(nc1NCC(C)C)CCN(c1ncccn1)CC2 | 4.12%
66 | O=S(=O)(C1CC1)N1CC[C@H]2OCC[C@@]2(COc2ncccc2F)C1 | -12.6%
67 | COC[C@]12COC[C@H]1CN(Cc1ccc3ccccc3n1)C2 | -3.53%
68 | Cc1ccc(N2C[C@H]3CCC[C@@]3(COc3cccnc3)C2)nn1 | -8.26%
69 | O=C(NCc1ccccn1)[C@H]1COC[C@H]2CN(c3ncccn3)C[C@H]21 | -4.8%
70 | Cc1nc(C)n(CC2CN(Cc3ccncc3)Cc3nccn3C2)n1 (configuration not stated) | -4.22%
71 | Cc1ncsc1CN1C[C@@H](OCc2ccncc2)[C@H]2OCCC[C@H]21 | 3.55%
72 | COCCN1CCc2cc(C(=O)NC(C)C)c(NCC(C)C)nc2CC1 | -16.4%
73 | CCO[C@@H]1CN(Cc2scnc2C)[C@@H]2CCCO[C@@H]21 | -10.5%
74 | CN1CCN([C@@H]2CCN(CC3CCOC3)[C@H]2Cc2cnn(C)c2)CC1 (some centres not stated) | -13%
75 | CN(C)C[C@]12COC[C@H]1CN(Cc1ccc3ccccc3n1)C2 | -11.7%
76 | CN1CCN([C@@H]2CCN(C3CCOC3)[C@H]2Cc2cnn(C)c2)CC1 (some centres not stated) | -12.4%
77 | Cc1ncsc1CN1C[C@@H](OCc2ccccn2)[C@H]2OCCC[C@H]21 | 7.35%
